In patent US7718640B2, “Methods and pharmaceutical compositions for reliable achievement of acceptable serum testosterone levels” (Bayer-Schering Pharma AG, priority 2003, dated 2010):

Experiments:
[1] = Pharmacokinetic profile: total serum testosterone after intramuscular TU in hypogonadal men (Example 3, FIG. 1); format: in vivo
Protocol: See Example 3 for the injection scheme. […] The filled lines show the continued injection of 1000-mg TU with an interval of 12 weeks between injections.
The pharmacokinetic profile of a formulation containing testosterone undecanoate (TU) 1000 mg in a vehicle of 4 ml of a mixture of castor oil and benzyl benzoate in a ratio of 1:1.7 by volume was tested in hypogonadal men (having testosterone levels in serum of less than 10 nmol/l). An initial phase of two first intramuscularly injections of 1000 mg TU with 6-weeks interval between the two injections, followed by a maintenance phase of subsequent 3 intramuscularly injections of 1000 mg TU separated by an interval of 10 weeks between each of the injections. Then 1000 mg of testosterone undecanoate (TU) was intramuscularly injected every 12 weeks. 5 treatment periods were provided with an interval of 12 weeks between each injection.

[2] = Long-term efficacy and safety study of intramuscular TU 1000 mg in hypogonadal men (Example 2); format: in vivo; settings: 4 TU doses of 1000 mg i.m. per year (12-week intervals), 4 ml castor oil:benzyl benzoate 1:1.7
Protocol: The therapeutic efficacy and safety of a formulation containing testosterone undecanoate 1000 mg in a vehicle of 4 ml of a mixture of castor oil and benzyl benzoate in a ratio of 1:1.7 by volume has been investigated in hypogonadal men. The formulation (4 mL, 1000 mg of testosterone undecanoate) was injected intramuscularly to the hypogonadal men according to the following scheme: • initial phase comprising 4 injections of the formulation with intervals of 6 weeks between the injections. • maintenance phase comprising injecting the formulation in intervals of 10 or 12 weeks between injections.
The present study relates to a one-arm study examining the efficacy and safety of long-term intramuscular injection of testosterone undecanoate for the treatment of symptoms of hypogonadism in men. The patients received 4 testosterone undecanoate injections of 1000 mg the first three times of injections with an interval of 6 weeks, the 4th injection and subsequent injections with 12-week intervals.

[3] = Comparison of initial phases with 6 versus 10 weeks between injections; serum testosterone (total) before each additional injection (Example 4); format: in vivo, men; settings: for Mean testosterone level (total) in serum after 1st injection / Mean testosterone level (total) in serum after 2nd injection: 6 men
Protocol: The pharmacokinetic profile of a formulation containing testosterone undecanoate (TU)1000 mg in a vehicle of 4 ml of a mixture of castor oil and benzyl benzoate in a ratio of 1:1.7 by volume was tested using two different regimens in hypogonadal men.
In regimen A, an initial phase of two first intramuscularly injections of 1000 mg TU with mean of 9.2-weeks (64.4 days) interval between the two injections, followed by a maintenance phase of subsequent intramuscularly injections of 1000 mg TU separated by an interval of a mean of 10.2 weeks ([…]) after second injection.
In regimen B, an initial phase of two first intramuscularly injections of 1000 mg TU with mean of 6.1-weeks (42.5 days) interval between the first two injections, followed by a maintenance phase of subsequent intramuscularly injections of 1000 mg TU separated by an interval of mean of 10.1 weeks (70.5 days) after second injections.
The concentration of testosterone (total) was determined in serum before each additional injection of TU.

Substance: 17β-hydroxyandrost-4-en-3-one undecanoate [TU]
- minimum testosterone levels (total levels) after 12 weeks ([1]; 12 weeks after injection of 1000 mg TU i.m., maintenance phase): ≥ 10 nmol
- minimum testosterone levels for a treatment period of 14 weeks ([1]; 14 weeks, upon extrapolating the serum levels of testosterone, lowest acceptable concentration about 10 nmol): The same was shown to apply
- serum testosterone levels throughout the entire period between injections ([1]; first injection interval 6 weeks, subsequent injections at 10 or 12 week intervals): 10 to 35 nmol/L
- maximal and minimal testosterone levels (total levels) in serum ([1]; hypogonadal men, 1000 mg TU i.m. in 4 ml castor oil:benzyl benzoate 1:1.7, 2 injections 6 weeks apart, then 3 at 10-week, then 12-week intervals): within the physiological acceptable range
- accumulation of testosterone over time ([1]; same scheme as Example 3, 1000 mg TU i.m.): no accumulation of testosterone is seen over time
- restoration of physiological serum T levels [2]: sufficient to restore physiological serum T levels in all 36 patients over most of the measurement times
- Mean testosterone level (total) in serum after 1st injection ([3]; Regime A, mean 9.2 weeks after 1st injection of 1000 mg TU i.m.): 7.0 nmol/L
- Mean testosterone level (total) in serum after 2nd injection ([3]; Regime A, mean 10.8 weeks after 2nd injection of 1000 mg TU i.m.): 8.8 nmol/L
- Mean testosterone level (total) in serum after 1st injection ([3]; Regime B, mean 6.1 weeks after 1st injection of 1000 mg TU i.m.): 12.2 nmol/L
- Mean testosterone level (total) in serum after 2nd injection ([3]; Regime B, mean 10.1 weeks after 2nd injection of 1000 mg TU i.m.): 12.5 nmol/L
- sufficiency of testosterone levels over the entire period up to the following injection ([3]; Regimen A: long-term intervals in both initial and maintenance phase): do not result in the sufficient levels of testosterone above 10 nmol
- testosterone levels over the period between injections ([3]; Regimen B: interval in the initial phase decreased to 6 weeks): above 10 nmol/l
